Assay results from PMC11702666, “The anti-COVID-19 drug Paxlovid crosses biological barriers of the placenta and brain in rats” (npj Viruses, 2024).
Entries after “also recorded” stand apart in the source; their conditions may differ. Read-outs that look alike come from different tables or passages of the source.

Experiments:
SARS-CoV-2 = test system: SARS-CoV-2; set-up: method as in PMID 34726479; conditions: 90% inhibition of viral replication, cited from earlier work
[1] = for Autosampler stability: 4°C for 6 hours; for Long-term stability: -20°C for 1 month; for Bench-top stability: room temperature for 6 hours; for Freeze‒thaw stability: three cycles
in vivo [2] = conditions: female, Sprague-Dawley, rat, iv, pregnant rats; for AUC(0-t): AUClast; for Kp: AUCtissue/AUCblood (maternal blood-to-tissue transfer ratio); for clearance: CL (clearance); for MRT: MRT (mean residence time); for half-life: t1/2 (elimination half-life)
in vivo [3] = conditions: female, Sprague-Dawley, rat, iv, 15 mg/kg; for AUC(0-t): AUClast; for AUC(0-t) / clearance / Cmax / MRT / Tmax / half-life: nonpregnant female rats; for clearance: CL (clearance); for MRT: MRT (mean residence time); for half-life: t1/2 (elimination half-life)
[4] = oral; cited from earlier work
[5] = for nirmatrelvir concentration in dialysate sample: 60 min after nirmatrelvir 15 mg/kg i.v., representative sample
[6] = PBPK model LeiCNS-PK3.0; recommended dosing regimen; cited from earlier work
in vivo [7] = conditions: male, Sprague-Dawley, rat, iv, 15 mg/kg; for AUC(0-t): AUClast; for AUC(0-t) / clearance / Cmax / MRT / Tmax / half-life: male rats; for clearance: CL (clearance); for MRT: MRT (mean residence time); for half-life: t1/2 (elimination half-life)
zebrafish embryo = zebrafish embryo model; therapeutic doses in humans; cited from earlier work
[8] = for nirmatrelvir concentration in dialysate sample: 60 min after nirmatrelvir 15 mg/kg i.v., representative sample; remark: listed apart in the source
[9] = amniotic fluid dialysate, 5 ng/mL
[10] = amniotic fluid dialysate, 250 ng/mL
[11] = male rat blood dialysate, 5 ng/mL
[12] = male rat blood dialysate, 250 ng/mL
[13] = male rat brain dialysate, 5 ng/mL
[14] = male rat brain dialysate, 250 ng/mL
[15] = pregnant rat maternal blood dialysate, 5 ng/mL
[16] = pregnant rat maternal blood dialysate, 250 ng/mL
[17] = 15 mg/kg, amniotic fluid, nirmatrelvir 15 mg/kg i.v. alone
[18] = 15 mg/kg, amniotic fluid, nirmatrelvir 15 mg/kg i.v. plus ritonavir 7 mg/kg i.v.
[19] = 15 mg/kg, fetus, nirmatrelvir 15 mg/kg i.v. alone
[20] = 15 mg/kg, fetus, nirmatrelvir 15 mg/kg i.v. plus ritonavir 7 mg/kg i.v.
[21] = 15 mg/kg, maternal blood, nirmatrelvir 15 mg/kg i.v. alone
[22] = 15 mg/kg, maternal blood, nirmatrelvir 15 mg/kg i.v. plus ritonavir 7 mg/kg i.v.
[23] = 15 mg/kg, placenta, nirmatrelvir 15 mg/kg i.v. alone
[24] = 15 mg/kg, placenta, nirmatrelvir 15 mg/kg i.v. plus ritonavir 7 mg/kg i.v.
[25] = blood, nirmatrelvir 15 mg/kg i.v. alone
[26] = blood, nirmatrelvir 15 mg/kg i.v. plus ritonavir 7 mg/kg i.v.
[27] = brain, nirmatrelvir 15 mg/kg i.v. alone
[28] = brain, nirmatrelvir 15 mg/kg i.v. plus ritonavir 7 mg/kg i.v.

Q: Which results are given for `CC(C)(C)[C@H](NC(=O)C(F)(F)F)C(=O)N1C[C@H]2[C@@H]([C@H]1C(=O)N[C@H](C#N)C[C@@H]1CCNC1=O)C2(C)C` [Nirmatrelvir]?
A: unbound EC90 (SARS-CoV-2): 90.5 ng/mL; EC90 (SARS-CoV-2; unbound): 181 nM; Autosampler stability [1, 9]: 101.84 ± 1.89%; Long-term stability [1, 9]: 97.21 ± 0.39%; Bench-top stability [1, 9]: 104.82 ± 1.50%; Freeze‒thaw stability [1, 9]: 107.43 ± 5.37%; Autosampler stability [1, 10]: 102.44 ± 2.35%; Long-term stability [1, 10]: 93.43 ± 1.54%; Bench-top stability [1, 10]: 98.60 ± 1.46%; Freeze‒thaw stability [1, 10]: 99.39 ± 4.32%; Autosampler stability ([1]; fetus dialysate, 5 ng/mL): 95.10 ± 0.47%; Long-term stability ([1]; fetus dialysate, 5 ng/mL): 95.20 ± 1.21%; Bench-top stability ([1]; fetus dialysate, 5 ng/mL): 102.37 ± 2.51%; Freeze‒thaw stability ([1]; fetus dialysate, 5 ng/mL): 107.56 ± 0.63%; Autosampler stability ([1]; fetus dialysate, 250 ng/mL): 97.12 ± 1.94%; Long-term stability ([1]; fetus dialysate, 250 ng/mL): 91.79 ± 1.56%; Bench-top stability ([1]; fetus dialysate, 250 ng/mL): 101.02 ± 0.48%; Freeze‒thaw stability ([1]; fetus dialysate, 250 ng/mL): 98.02 ± 2.49%; Autosampler stability [1, 11]: 95.56 ± 6.20%; Long-term stability [1, 11]: 89.61 ± 1.00%; Bench-top stability [1, 11]: 104.5 ± 1.73%; Freeze‒thaw stability [1, 11]: 100.3 ± 3.40%; Autosampler stability [1, 12]: 94.23 ± 4.18%; Long-term stability [1, 12]: 88.54 ± 1.07%; Bench-top stability [1, 12]: 97.60 ± 0.73%; Freeze‒thaw stability [1, 12]: 88.57 ± 0.33%; Autosampler stability [1, 13]: 92.51 ± 2.01%; Long-term stability [1, 13]: 90.07 ± 2.77%; Bench-top stability [1, 13]: 100.6 ± 0.37%; Freeze‒thaw stability [1, 13]: 99.58 ± 1.02%; Autosampler stability [1, 14]: 93.59 ± 4.41%; Long-term stability [1, 14]: 87.36 ± 2.58%; Bench-top stability [1, 14]: 95.79 ± 0.24%; Freeze‒thaw stability [1, 14]: 92.01 ± 0.29%; Autosampler stability ([1]; placenta dialysate, 5 ng/mL): 101.55 ± 6.56%; Long-term stability ([1]; placenta dialysate, 5 ng/mL): 97.38 ± 0.55%; Bench-top stability ([1]; placenta dialysate, 5 ng/mL): 100.37 ± 1.24%; Freeze‒thaw stability ([1]; placenta dialysate, 5 ng/mL): 101.85 ± 4.27%; Autosampler stability ([1]; placenta dialysate, 250 ng/mL): 98.14 ± 3.84%; Long-term stability ([1]; placenta dialysate, 250 ng/mL): 88.97 ± 1.33%; Bench-top stability ([1]; placenta dialysate, 250 ng/mL): 98.87 ± 0.27%; Freeze‒thaw stability ([1]; placenta dialysate, 250 ng/mL): 100.83 ± 0.95%; Autosampler stability [1, 15]: 102.98 ± 4.81%; Long-term stability [1, 15]: 87.18 ± 0.87%; Bench-top stability [1, 15]: 96.42 ± 2.53%; Freeze‒thaw stability [1, 15]: 101.21 ± 2.66%; Autosampler stability [1, 16]: 98.97 ± 4.80%; Long-term stability [1, 16]: 87.65 ± 1.83%; Bench-top stability [1, 16]: 98.68 ± 1.18%; Freeze‒thaw stability [1, 16]: 105.98 ± 2.99%; increase of Cmax in blood, combined vs alone (nonpregnant female rats, blood, coadministration with ritonavir vs nirmatrelvir alone): threefold; protein unbound nirmatrelvir concentrations in blood and brain versus EC90 (nonpregnant rats): all higher than the EC90; AUC(0-t) (in vivo [2]; [17]): 4740 ng·h/mL; AUC(0-t) (in vivo [2]; [18]): 17200 ng·h/mL; AUC(0-t) (in vivo [2]; [19]): 2830 ng·h/mL; AUC(0-t) (in vivo [2]; [20]): 5720 ng·h/mL; AUC(0-t) (in vivo [2]; [21]): 52200 ng·h/mL; AUC(0-t) (in vivo [2]; [22]): 120000 ng·h/mL; AUC(0-t) (in vivo [2]; [23]): 8010 ng·h/mL; AUC(0-t) (in vivo [2]; [24]): 18000 ng·h/mL; Kp (in vivo [2]; [17]): 0.12 ± 0.03; Kp (in vivo [2]; [19]): 0.06 ± 0.01; Kp (in vivo [2]; [23]): 0.15 ± 0.03; clearance (in vivo [2]; [21]): 5 ± 0.4 mL/min/kg; clearance (in vivo [2]; [22]): 2.14 ± 0.15 mL/min/kg; Cmax (in vivo [2]; [17]): 1840 ± 490 ng/mL; Cmax (in vivo [2]; [18]): 6590 ± 1840 ng/mL; Cmax (in vivo [2]; [19]): 960 ± 190 ng/mL; Cmax (in vivo [2]; [20]): 1720 ± 600 ng/mL; Cmax (in vivo [2]; [21]): 156000 ± 24000 ng/mL; Cmax (in vivo [2]; [22]): 171000 ± 52300 ng/mL; Cmax (in vivo [2]; [23]): 3560 ± 320 ng/mL; Cmax (in vivo [2]; [24]): 4400 ± 820 ng/mL; MRT (in vivo [2]; [17]): 4.83 h; MRT (in vivo [2]; [18]): 7.62 h; MRT (in vivo [2]; [19]): 5.13 h; MRT (in vivo [2]; [20]): 21.1 h; MRT (in vivo [2]; [21]): 0.8 h; MRT (in vivo [2]; [22]): 3.22 h; MRT (in vivo [2]; [23]): 2.53 h; MRT (in vivo [2]; [24]): 6.92 h; Tmax (in vivo [2]; [17]): 1.05 h; Tmax (in vivo [2]; [18]): 3.6 h; Tmax (in vivo [2]; [19]): 1.17 h; Tmax (in vivo [2]; [20]): 3.93 h; Tmax (in vivo [2]; [23]): 0.667 h; Tmax (in vivo [2]; [24]): 2.2 h; half-life (in vivo [2]; [17]): 167 ± 41 min; half-life (in vivo [2]; [18]): 241 ± 105 min; half-life (in vivo [2]; [19]): 182 ± 60 min; half-life (in vivo [2]; [20]): 822 ± 546 min; half-life (in vivo [2]; [21]): 15 ± 1 min; half-life (in vivo [2]; [22]): 40 ± 7 min; half-life (in vivo [2]; [24]): 256 ± 39 min; Kp (in vivo [2]; amniotic fluid, nirmatrelvir 15 mg/kg i.v. plus ritonavir 7 mg/kg i.v.): 0.2 ± 0.07; Kp (in vivo [2]; fetus, nirmatrelvir 15 mg/kg i.v. plus ritonavir 7 mg/kg i.v.): 0.06 ± 0.02; Kp (in vivo [2]; placenta, nirmatrelvir 15 mg/kg i.v. plus ritonavir 7 mg/kg i.v.): 0.13 ± 0.02; Kp (in vivo [3]): 0.21 ± 0.04; AUC(0-t) (in vivo [3]; [25]): 16800 ng·h/mL; AUC(0-t) (in vivo [3]; [26]): 69400 ng·h/mL; AUC(0-t) (in vivo [3]; [27]): 3120 ng·h/mL; AUC(0-t) (in vivo [3]; [28]): 5280 ng·h/mL; clearance (in vivo [3]; [25]): 16 ± 2.02 mL/min/kg; clearance (in vivo [3]; [26]): 3.73 ± 0.29 mL/min/kg; Cmax (in vivo [3]; [25]): 35600 ± 2110 ng/mL; Cmax (in vivo [3]; [26]): 107000 ± 7400 ng/mL; Cmax (in vivo [3]; [27]): 2420 ± 460 ng/mL; Cmax (in vivo [3]; [28]): 2330 ± 390 ng/mL; MRT (in vivo [3]; [25]): 0.667 h; MRT (in vivo [3]; [26]): 1.32 h; MRT (in vivo [3]; [27]): 1.55 h; MRT (in vivo [3]; [28]): 2.2 h; Tmax (in vivo [3]; [27]): 20 min; Tmax (in vivo [3]; [28]): 36 min; half-life (in vivo [3]; [25]): 20 ± 2 min; half-life (in vivo [3]; [26]): 25 ± 1 min; half-life (in vivo [3]; [27]): 65 ± 7 min; half-life (in vivo [3]; [28]): 64 ± 12 min; bioavailability [4]: approximately 50%; nirmatrelvir concentration in dialysate sample ([5]; blood dialysate): 78.01 ng/mL; nirmatrelvir concentration in dialysate sample ([5]; brain dialysate): 36.36 ng/mL; protein unbound nirmatrelvir concentrations in blood and brain versus EC90 ([5]; male rats): all higher than the EC90; predicted brain penetration / effective concentrations against SARS-CoV-2 [6]: achieves effective concentrations against SARS-CoV-2 in human brain cells; Kp (in vivo [7]): 0.26 ± 0.03; AUC(0-t) (in vivo [7]; [25]): 12900 ng·h/mL; AUC(0-t) (in vivo [7]; [26]): 80500 ng·h/mL; AUC(0-t) (in vivo [7]; [27]): 3540 ng·h/mL; AUC(0-t) (in vivo [7]; [28]): 5190 ng·h/mL; clearance (in vivo [7]; [25]): 21 ± 2.8 mL/min/kg; clearance (in vivo [7]; [26]): 3.16 ± 0.18 mL/min/kg; Cmax (in vivo [7]; [25]): 26500 ± 4450 ng/mL; Cmax (in vivo [7]; [26]): 94500 ± 27600 ng/mL; Cmax (in vivo [7]; [27]): 2520 ± 320 ng/mL; Cmax (in vivo [7]; [28]): 2020 ± 350 ng/mL; MRT (in vivo [7]; [25]): 0.717 h; MRT (in vivo [7]; [26]): 2.32 h; MRT (in vivo [7]; [27]): 1.53 h; MRT (in vivo [7]; [28]): 3.4 h; Tmax (in vivo [7]; [27]): 20 min; Tmax (in vivo [7]; [28]): 27 min; half-life (in vivo [7]; [26]): 50 ± 9 min; half-life (in vivo [7]; [27]): 66 ± 7 min; half-life (in vivo [7]; [28]): 123 ± 22 min; survival rates and morphological defects (zebrafish embryo): does not affect survival rates or induce morphological defects; also recorded: did not affect survival rates or induce morphological defects; nirmatrelvir concentration in dialysate sample ([8]; amniotic fluid dialysate): 27.61 ng/mL; nirmatrelvir concentration in dialysate sample ([8]; fetus dialysate): 37 ng/mL; nirmatrelvir concentration in dialysate sample ([8]; maternal blood dialysate): 344.8 ng/mL; nirmatrelvir concentration in dialysate sample ([8]; placenta dialysate): 95.13 ng/mL; nirmatrelvir level in conceptus (fetus, placenta, amniotic fluid) versus EC90 ([8]; pregnant rats, regular dose of Paxlovid): higher than the EC90
